Where two headings read alike, the source gives them in different places.
Key:
[1] = Phase 1 single oral dose safety and tolerability in healthy subjects; format: in vivo, human; settings: till 100 mg single dose
[2] = Phase 1 single oral dose pharmacokinetics in healthy subjects (plasma and urine, LC-MS/MS); format: in vivo, human; settings: for half-life / Cmax / dose excreted: human; for half-life / Cmax: plasma; for half-life: read-out: mean elimination half-life (converted); for dose excreted: urine, read-out: mean cumulative percentage urinary recovery of unchanged compound
[3] = tested on: activated THP-1 cells, hPBMCs and whole blood; assay: IL-1β and IL-18 secretion from cells treated with LPS and ATP; format: cell-based, human
Experimental: Compound 11, a potent NLRP3 inflammazome inhibitor blocks the IL-1β and IL-18 secretion from activated THP-1 cells, hPBMCs (Human peripheral blood mononuclear cell) and whole blood treated with LPS (lipopolysaccharide) and ATP (Adenosine triphosphate). For the whole blood assay, human peripheral venous blood was collected from healthy volunteers following the protocol approved by ethics committee. Whole blood was distributed in 96-well plates and primed with LPS (500 ng/mL) for 4 hours. Different concentrations of compound 11 was added in the presence of serum free media. NLRP3 inflammasome was induced with ATP (5 mM) for 1 hour. The supernatant was collected at the end of 1 hour and assayed for released IL-1β using the ELISA method. The inhibition in the cytokine levels was plotted and the half maximal inhibitory concentration was derived.

[4] = 25 mg single oral dose, cohort S1
[5] = 50 mg single oral dose, cohort S2
[6] = 100 mg single oral dose, cohort S3

mean plasma clearance [2, 4]: 0.922 ± 0.01 L/h
mean volume of distribution [2, 4]: 8681.147 ± 929.14 mL
mean plasma clearance [2, 5]: 1.238 ± 0.22 L/h
mean volume of distribution [2, 5]: 10285.52 ± 1174.32 mL
mean plasma clearance [2, 6]: 1.099 ± 0.15 L/h
mean volume of distribution [2, 6]: 9847.576 ± 825.72 mL
half-life ([2]; oral, across all three doses (25, 50, 100 mg)): 6 to 6.5 h
Cmax [2, 4]: 3390 ± 720 ng/mL
half-life [2, 4]: 6.53 ± 0.67 h
Cmax [2, 5]: 5720 ± 520 ng/mL
half-life [2, 5]: 5.82 ± 0.47 h
half-life [2, 6]: 6.28 ± 0.65 h
dose excreted [2, 4]: 93.3%
dose excreted [2, 5]: 69.1%
dose excreted [2, 6]: 76.6%
SMILES: CN1CCC[C@]1(C)/C=C/S(=O)(=O)NC(=O)Nc1c2c(cc3c1CCC3)CCC2 [Compound 11, (R,E)-2-(1,2-dimethylpyrrolidin-2-yl)-N-((1,2,3,5,6,7-hexahydro-s-indacen-4-yl)carbamoyl)ethene-1-sulfonamide]
safety and tolerability [1]: safe and well tolerated
IL-1β and IL-18 secretion [3]: blocks

From patent US20250041267A1, “TREATEMENT FOR CRYOPYRIN ASSOCIATED PERIODIC SYNDROMES (CAPS)” (Zydus Lifesciences Limited, priority 2021, published 2025)
